Reference: US20200338028A1, “BENZENESULFONAMIDE DERIVATIVES AND METHOD FOR MODULATING LIPID RAFT” (Gongwin Biopharm Co., Ltd., priority 2017, published 2020)

Columns and labels:
Type in all cases: cell-based, human
normal prostate cells = test: SRB assay, anti-proliferative effect; conditions: primary prostate cells, compared with CRPC cells, FIG. 1A
Experimental: Two castration-resistant prostate cancer (CRPC) cell lines of PC-3 and DU-145 were cultured in RPMI 1640 medium with 5% FBS (v/v), penicillin (100 units/ml) and streptomycin (100 μg/ml). Cultures were maintained in a 37° C. incubator with 5% CO2, and adherent cultures were passaged using 0.05% trypsin-EDTA when they reached about 80% confluence. Prostate cells were from human tissue samples which were obtained following informed consent of the donors and after full review by the Ethics Review Committee at National Taiwan University Hospital. The prostate specimens were from males by transurethral resection of the prostate. All patients with prostatism histories were diagnosed to have benign prostate hyperplasia by rectal digital examination, transrectal sonography of prostate and urodynamic studies. […] SRB assay is an accurate and reproducible assay based upon quantitative SRB staining of cellular proteins, and the process for SRB assay was performed as follows. […] The absorbance of SRB was measured at a wavelength of 515 nm at the time of p-TSA addition (hereinafter referred to as time zero, TZ), and after additional incubation of DMSO (hereinafter referred to as control growth, CTL) or p-TSA (hereinafter referred to as Tx). The percentage of cell growth inhibition was calculated by the formula of [1−(Tx−TZ)/(CTL−TZ)]×100%. […]

DU-145 cells = test: Western blot of Bcl-2 family members, cell cycle regulators and Akt/mTOR/p70S6K pathway signals
Experimental: (§1) In addition, protein expression assay of each Mcl-1, Bcl-2, Bid, PUMA and Bak was performed by western blotting with methods described as follows. After treatment of PC-3 and DU145 cells with p-TSA, the cells were harvested with trypsinization, centrifuged and lysed in 0.1 ml of lysis buffer containing 10 mM Tris-HCl (pH 7.4), 150 mM NaCl, 1 mM EGTA, 1% Triton X-100, 1 mM PMSF, 10 μg/ml leupeptin, 10 μg/ml aprotinin, 50 mM NaF and 100 μM sodium orthovanadate. Total protein was quantified, mixed with the sample buffer and boiled at 90° C. for 5 min. Equal amount of protein (30 μg) was separated by electrophoresis in 8% or 12% SDS-PAGE, transferred to PVDF membranes and detected with specific antibodies (1:1000 dilution) for each of Mcl-1, Bcl-2, Bid, PUMA and Bak proteins. The immunoreactive proteins after incubation with appropriately labeled secondary antibody (1:3000 dilution) were detected with an enhanced chemiluminescence detection kit (Amersham, Buckinghamshire, United Kingdom). […] These effects were correlated with the mitochondrial stress.
(§2) During G1 phase, cells grow in size and synthesize mRNA and proteins which are necessary to DNA synthesis. The serine/threonine kinases mTOR and p70S6K that regulate protein synthesis (mRNA translation) through affecting the phosphorylation or activities of several downstream translation factors are critical regulators in G1 phase. Protein expression assay of each Akt, mTOR 4E-BP1 and p70S6K was performed by Western blotting.

PC-3 cells = test: as above
Experimental: as §1, §2

Cc1ccc(S(N)(=O)=O)cc1 [p-TSA, para-toluenesulfonamide]
anti-proliferative activity in normal prostate cells (normal prostate cells): lower anti-proliferative activity
phosphorylation of Akt (DU-145 cells; DU-145, 6 mM p-TSA): not modified
p21 and p27 expression (DU-145 cells; DU-145, 6 mM p-TSA, FIG. 3A): neither p21 nor p27 expression was modified
phosphorylation of mTOR, 4E-BP1 and p70S6K (DU-145 cells; DU-145, 6 mM p-TSA, FIGS. 3B and 3C): inhibitory effect
expressions of PUMA and Bak (DU-145 cells; DU-145, 24 h, Western blot): increase
protein expression of Mcl-1 (DU-145 cells; DU-145, 24 h, Western blot, FIG. 2D): significantly decreased
cyclin D1 protein expression (DU-145 cells; Rb-mutant DU-145, 6 mM p-TSA, FIG. 3A): decrease
phosphorylation of Akt (PC-3 cells; PC-3, 6 mM p-TSA): inhibited
Rb phosphorylation (PC-3 cells; PC-3, 6 mM p-TSA, FIG. 3A): decrease
cyclin D1 protein expression (PC-3 cells; PC-3, 6 mM p-TSA, FIG. 3A): decrease
p21 and p27 expression (PC-3 cells; PC-3, 6 mM p-TSA, FIG. 3A): neither p21 nor p27 expression was modified
phosphorylation of mTOR, 4E-BP1 and p70S6K (PC-3 cells; PC-3, 6 mM p-TSA, FIGS. 3B and 3C): inhibitory effect
expressions of PUMA and Bak (PC-3 cells; PC-3, 24 h, Western blot): increase
